Assay results: patent US12265087B2, “Olfactory receptor as microglia marker and use thereof” (DAEGU GYEONGBUK INSTITUTE OF SCIENCE AND TECHNOLOGY, priority 2019, dated 2025)
Entries after “also recorded” stand apart in the source; their conditions may differ.

What was measured:
primary microglia = test: Western blotting of phosphorylated signaling proteins in primary microglia; assay type: cell-based, mouse; conditions: 0-30 min after treatment
Method: Cells and tissue were prepared using the T-PER® reagent (#78510; Thermo Fisher Scientific) containing protease inhibitors (#04-693-116-001; Roche Molecular Diagnostics) and DMSF (Sigma-Aldrich), and then lysed using a MagNA lyser (Roche Molecular Diagnostics). A total protein extract was quantified by the Bradford assay. The samples were dissolved in 7.5% SDS-PAGE or 4-20% gradient mini-PROTEIN TGX Precast Gels (#456-1064; Bio-Rad Laboratories), and then blotted on nitrocellulose membranes (#10600002; GE Healthcare). Afterward, the membranes were blocked for 1 hour in 5% non-fat dry milk and TBST, 0.1% TWEEN® 20 (#P9416; Sigma-Aldrich), and Tris-buffered saline, and then incubated with primary antibodies at 4° C. overnight. The antibodies were as follows: Olfr110 (36 kDa; 1:1,000; #ab177327; Abcam), anti-rhodopsin (39 kDa; 1:1,000; #MABN15; Millipore), CREB (43 kDa; 1:1,000; #9197; Cell Signaling Technology), phospho-CREB (43 kDa; 1:1,000; #9198; Cell Signaling Technology), ERK (44 kDa; 1:1,000; #sc094; Santa Cruz), phospho-ERK (42, 44 kDa; 1:1,000; #sc-7383; Santa Cruz), phospho-Akt (60 kDa; 1:500; sc-293125; Santa Cruz), phospho-JNK (46, 54 kDa; 1:500; sc-6254; Santa Cruz), phosphor-p38 (38 kDa; 1:1,000; sc-7973; Santa Cruz), and beta-Actin (45 kDa; 1:10,000; #4967; Cell Signaling Technology). In addition, as isotype-matched horseradish peroxidase-conjugated secondary antibodies, anti-rabbit IgG (#711-035-152; Jackson ImmunoResearch) diluted 1:100,000, and anti-mouse IgG (#715-035-150; Jackson ImmunoResearch) diluted 1:40,000 in TBST were used at room temperature for 2 hours. Immunoreactive protein bands were obtained using SuperSignal™ West Pico Chemiluminescent Substrate (#34080; Thermo Fisher Scientific).

Olfr110 F104W mutation = target: T1, Olfr110 F104W mutation (Mus musculus, UniProt A2RT31, F104W); test: Luciferase assay with site-directed Olfr110 mutants; assay type: cell-based; conditions: 2-PF treatment
T1 construct: Full-length odorant receptor genes from mouse and human genomic DNAs were amplified using appropriate primers; Lucy (N); Flag (N); Rho (N); expressed in transfected cells; host or cells: Hana3A cells
T1 sequence (A2RT31 1-317 F104W): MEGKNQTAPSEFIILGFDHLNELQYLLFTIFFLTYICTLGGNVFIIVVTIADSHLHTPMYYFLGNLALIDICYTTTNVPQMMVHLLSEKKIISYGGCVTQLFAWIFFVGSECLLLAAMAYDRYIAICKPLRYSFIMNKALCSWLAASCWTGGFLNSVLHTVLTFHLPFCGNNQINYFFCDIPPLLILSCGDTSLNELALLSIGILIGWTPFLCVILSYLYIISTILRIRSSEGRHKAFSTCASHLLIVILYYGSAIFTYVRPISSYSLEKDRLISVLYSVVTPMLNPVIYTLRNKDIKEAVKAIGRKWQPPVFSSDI
From the text: Specific mutant vectors of the Olfr110 structure were generated using PfuUltra High-Fidelity DNA polymerase (#600380; Agilent Technologies). All mutant vectors (F102W; F104W; Y252F; Y259F; F102W/F104W; Y252F/Y259F; F102W/Y252F/Y259F; F104W/Y252F/Y259F; F102W/F104W/Y252F/Y259F) were sequenced in forward and reverse directions (Macrogen).

cerebral cortex = test: Cytokine mRNA in the cerebral cortex after IP injection (qRT-PCR); assay type: in vivo, mouse; conditions: 2-PF injection
From the text: To measure mRNA, RNA was isolated from red blood cells, microglia, astrocytes, Hana3A cells or cerebral cortex cells using a MagNa lyser (Roche Molecular Diagnostics) with TRIzol reagent (Invitrogen, Carlsbad, Calif.) according to the manufacturer's protocols. Afterward, cDNA was synthesized through reverse transcription using isolated mRNA (using PrimeScript™ 1st str and cDNA Synthesis kit-#6110; Takara Bio Inc.). This process was quantitatively measured in real time through quantitative real-time-PCR (using a LightCycler® 480 SYBR Green I Master). The measurement values were calculated using a 2-ΔΔCt method.

[1] = Disease behavior: mouse mobility after IP injection; assay type: in vivo; conditions: 2-PF injection (IP), three concentrations
Method: It is known that an increase in disease behavior by microglial activation is due to an increase in secreted cytokines. To confirm the increase in disease behavior with the increase in cytokines, this experiment was conducted. The evaluation of disease behavior was accomplished after IP injection of Sup or 2-PF into the mice.
After IP injection, a mouse was placed in a space with four open sides (40×40×40 cm, white field, black wall), and the location of the mouse was recorded with a camera for 30 minutes, and then a moving distance thereof was calculated. Afterward, the data was plotted in a pseudo-color heat map using EthoVision XT (Noldus, Netherlands).

Olfr111 = test: Luciferase assay in Hana3A cells transfected with Olfr111; assay type: cell-based, mouse; conditions: Hana3A cells
Method: A Dual-Glo luciferase assay system (#E2940; Promega) was used for OR ligand screening. More specifically, Hana3A cells were seeded in white polystyrene 96-well plates (#353296; BD Biosciences) one day before transfection. pCRELuc (1 μg; #219076; Agilent Technologies), pRL-SV40 (1 μg; #E2231; Promega), RTP1S (1 μg), and OR (6 μg; or Mock) vectors were transfected for 24 hours in each plate. Analysis was performed using Lipofectamine 2000 (#11668-019; Thermo Fisher Scientific) according to the manufacturer's protocols. Transfected cells were stimulated at 37° C. for 4 hours with various concentrations of diluted odorants in a CD293 medium (#11913-019; Thermo Fisher Scientific). The activity of luciferase was normalized to that of Renilla luciferase. Luminescence was measured using a SpectraMax L microplate reader (Molecular Devices).

luciferase activity of Olfr110 F104W mutant (Olfr110 F104W mutation): completely lost
Structure (SMILES): CCCCCc1ccco1 [2-PF, 2-pentylfuran]
phosphorylation levels of ERK, p38, JNK and Akt (primary microglia): increased from 2 minutes and stopped increasing at 20 minutes
expression level of inflammatory cytokines (Tnf, Il6, Il1b, Il10) (cerebral cortex): significantly increased
mouse mobility [1]: concentration-dependent decrease
reactivity with Olfr111 (relative luciferase activity) (Olfr111): selective ligands; also recorded: showed reactivity
